{"source": "patent US12661345B2", "about": "“Compositions for the treatment of hypertension” (The George Institute for Global Health, priority 2017, dated 2026)", "key": {"[1]": {"system": "participants with migraine", "test": "Subject status / participant withdrawals by visit in the 3×3 factorial trial"}, "LDL": {"system": "LDL", "test": "LDL laboratory test in the 3×3 factorial trial", "type": "in vivo, human", "details": "Week 12 v/s Baseline", "description": "There was a 4 week screening period and another 4-week post study drug observational period.\nGroup 2 received the low-dose BP lowering combination and simvastatin (i.e., telmisartan 20 mg+amlodipine 2.5 mg+simvastatin). Group 3 received the low-dose BP lowering combination and placebo (i.e., telmisartan 20 mg+amlodipine 2.5 mg+placebo). […] Group 9 received double placebo.\nChange in DBP and SBP • 2. Change in LDL Secondary Outcomes: • 1. Tolerability: • a. […] Difference between groups in participant withdrawals from treatment • 2. Safety: Percentage with any severe adverse event (SAE) • 3. Medication adherence: self-reported measures, pill counts BP Measurement:\nPotassium (K+), sodium (Na+), serum creatinine and LDL were measured at screening and at the 12-week end of treatment follow-up visit.\nAll analyses of study outcomes were conducted according to the principle of intention-to-treat. The analyses of continuous outcomes such SBP and LDL-cholesterol at 12 weeks was performed using ANCOVA including the treatment arm and baseline values as a covariate. Additional analyses included interim measurements in a longitudinal model including treatment arm, visit, and treatment by visit interaction as well as the baseline measurement. Within-patient correlations were modelled using generalized estimating equations. A similar approach was applied to binary endpoints with log-binomial regression used in place of linear regression. There were also pre-defined subgroup analyses, baseline BP, baseline LDL, gender and age."}}}
{"smiles": "CC(C)NCC(O)COc1cccc2ccccc12", "note": "(centres unmarked) [Propranolol, propranolol]", "values": [{"measurement": "Discontinuing: Deceased (percent)", "setting": "[1]; Week 4", "value": "(0.0%)"}, {"measurement": "Discontinuing: Deceased (percent)", "setting": "[1]; Week 8", "value": "(0.0%)"}, {"measurement": "Discontinuing: Deceased (percent)", "setting": "[1]; Week 12", "value": "(0.0%)"}, {"measurement": "Change in LDL from baseline to 12 weeks Mean (SD)", "setting": "LDL", "value": "10 −0.9 (1.03) mmol/l"}, {"measurement": "Change in LDL from baseline to 12 weeks Q1", "setting": "LDL", "value": -1.3, "unit": "mmol/L"}, {"measurement": "Change in LDL from baseline to 12 weeks Q2", "setting": "LDL", "value": -0.7, "unit": "mmol/L"}, {"measurement": "Change in LDL from baseline to 12 weeks Q3", "setting": "LDL", "value": -0.2, "unit": "mmol/L"}, {"measurement": "Change in LDL from baseline to 12 weeks max", "setting": "LDL", "value": 0, "unit": "mmol/L"}, {"measurement": "Change in LDL from baseline to 12 weeks min", "setting": "LDL", "value": -3, "unit": "mmol/L"}]}
{"smiles": "CCC(C)(C)C(=O)O[C@H]1C[C@@H](C)C=C2C=C[C@H](C)[C@H](CC[C@@H]3C[C@@H](O)CC(=O)O3)[C@H]21", "note": "[Simvastatin, simvastatin]", "values": [{"measurement": "Discontinuing the study (n/N)", "setting": "[1]; Week 4", "value": "0/9"}, {"measurement": "Discontinuing the study (percent)", "setting": "[1]; Week 4", "value": "(0.0%)"}, {"measurement": "Discontinuing: Deceased (n/N)", "setting": "[1]; Week 4", "value": "0/0"}, {"measurement": "Discontinuing: Deceased (percent)", "setting": "[1]; Week 4", "value": "(0.0%)"}, {"measurement": "Discontinuing the study (n/N)", "setting": "[1]; Week 8", "value": "0/9"}, {"measurement": "Discontinuing the study (percent)", "setting": "[1]; Week 8", "value": "(0.0%)"}, {"measurement": "Discontinuing: Deceased (n/N)", "setting": "[1]; Week 8", "value": "0/0"}, {"measurement": "Discontinuing: Deceased (percent)", "setting": "[1]; Week 8", "value": "(0.0%)"}, {"measurement": "Discontinuing the study (n/N)", "setting": "[1]; Week 12", "value": "0/9"}, {"measurement": "Discontinuing the study (percent)", "setting": "[1]; Week 12", "value": "(0.0%)"}, {"measurement": "Discontinuing: Deceased (n/N)", "setting": "[1]; Week 12", "value": "0/0"}, {"measurement": "Discontinuing: Deceased (percent)", "setting": "[1]; Week 12", "value": "(0.0%)"}, {"measurement": "Deceased (n/N)", "setting": "[1]; Week 16", "value": "0/9"}, {"measurement": "Deceased (percent)", "setting": "[1]; Week 16", "value": "(0.0%)"}, {"measurement": "Change in LDL from baseline to 12 weeks Mean (SD)", "setting": "LDL", "value": "9 −1.0 (0.38) mmol/l"}, {"measurement": "Change in LDL from baseline to 12 weeks Q1", "setting": "LDL", "value": -1.2, "unit": "mmol/L"}, {"measurement": "Change in LDL from baseline to 12 weeks Q2", "setting": "LDL", "value": -1.0, "unit": "mmol/L"}, {"measurement": "Change in LDL from baseline to 12 weeks Q3", "setting": "LDL", "value": -0.8, "unit": "mmol/L"}, {"measurement": "Change in LDL from baseline to 12 weeks max", "setting": "LDL", "value": -1, "unit": "mmol/L"}, {"measurement": "Change in LDL from baseline to 12 weeks min", "setting": "LDL", "value": -2, "unit": "mmol/L"}]}
